Legend:
Laodelphax striatella = experiment: Insecticidal test on Laodelphax striatella (rice seedling dip); assay type: in vivo; settings: Laodelphax striatellus, 192 h, rice seedlings dipped 30 seconds, 3rd-instar larvae, 8 days after inoculation, read-out: insecticidal effect (corrected mortality rate), activity level
Text: Insecticidal Test on Laodelphax striatella
The condensed heterocyclic compounds represented by the general formula (1) of the present invention or salts thereof were separately dispersed in water and diluted to 500 ppm, and rice plant seedlings (variety: Nihonbare) were dipped in the agrochemical dispersions for 30 seconds. After air-dried, each seedling was put into a separate glass test tube and inoculated with ten 3rd-instar larvae of Laodelphax striatella, and then the glass test tubes were capped with cotton plugs. At 8 days after the inoculation, the numbers of surviving larvae and dead larvae were counted, the corrected mortality rate was calculated according to the formula shown below, and the insecticidal effect was evaluated according to the criteria of Test Example 1. Corrected mortality rate (%)=100×(Survival rate in a non-treatment plot−Survival rate in a treatment plot)/Survival rate in a non-treatment plot [Math. 2]

Plutella xylostella = experiment: Insecticidal test on Plutella xylostella (dip of Chinese cabbage seedlings with laid eggs); assay type: in vivo; settings: 144 h, seedlings with laid eggs dipped about 30 seconds, 25° C., 6 days after dip treatment, read-out: insecticidal effect (corrected mortality rate), activity level
Text: Insecticidal Test on Plutella xylostella
Adults of Plutella xylostella were released onto Chinese cabbage seedlings and allowed to lay eggs thereon. At 2 days after the release of the adults, the Chinese cabbage seedlings with laid eggs were dipped for about 30 seconds in agrochemical dispersions diluted to 500 ppm, each of which contained a different condensed heterocyclic compound represented by the general formula (1) of the present invention as an active ingredient. After air-dried, the seedlings were kept in a thermostatic chamber at 25° C. At 6 days after the dip treatment, the number of hatched larvae per plot was counted, the mortality rate was calculated according to the formula shown below, and the insecticidal effect was evaluated according to the criteria of Test Example 1. This test was conducted in triplicate using 10 adults of Plutella xylostella per plot. Corrected mortality rate (%)=100×(Number of hatched larvae in a non-treatment plot−Number of hatched larvae in a treatment plot)/Number of hatched larvae in a non-treatment plot [Math. 3]

| SMILES | mortality at 500 ppm (Laodelphax striatella) | mortality at 500 ppm (Plutella xylostella) |
| --- | --- | --- |
| CCS(=O)(=O)c1cc(C(F)(F)F)ccc1C1=Nc2cc(C(F)(F)F)cnc2C1(F)F [Compound 1-1] | 100% | 100% |
| CCS(=O)(=O)c1cc(C(F)(F)F)cnc1C1=Nc2cc(C(F)(F)F)cnc2C1(F)F [Compound 1-10, 2-(3-Ethylsulfonyl-5-trifluoromethylpyridin-2-yl)-3,3-difluoro-6-trifluoromethyl-3H-pyrrolo[3,2-b]pyridine] | 100% | 100% |
| CC[S+]([O-])c1cc(C(F)(F)F)cnc1C1=Nc2cc(C(F)(F)F)cnc2C1(F)F (stereo not shown) [Compound 1-9, 2-(3-Ethylsulfinyl-5-trifluoromethylpyridin-2-yl)-3,3-difluoro-6-trifluoromethyl-3H-pyrrolo[3,2-b]pyridine] | 100% | 100% |
| CCS(=O)(=O)c1cc(-c2cccc(C(F)(F)F)c2)cnc1C1=Nc2cc(C(F)(F)F)cnc2C1(F)F [Compound 1-20, 2-(3-Ethylsulfonyl-5-(3-trifluoromethylphenyl)pyridin-2-yl)-3,3-difluoro-6-trifluoromethyl-3H-pyrrolo[3,2-b]pyridine] | 100% | 100% |
| CCS(=O)(=O)c1cc(-c2ccc(F)cc2)cnc1C1=Nc2cc(C(F)(F)F)cnc2C1(F)F [Compound 1-19, 2-(3-Ethylsulfonyl-5-(4-fluorophenyl)pyridin-2-yl)-3,3-difluoro-6-trifluoromethyl-3H-pyrrolo[3,2-b]pyridine] | 100% | 100% |

— patent US10292395B2, “3H-pyrrolopyridine compound, N-oxide thereof or salt thereof, agricultural and horticultural insecticide comprising the compound and method for using the same” (Nihon Nohyaku Co., Ltd., priority 2015, dated 2019)
